A short description of series [1]: Solubility of the compound in water after 24 hrs by HPLC analysis. The series is classed as physicochemical.
The test system of series [2] is BXPC-3. The series is described as follows: Antiproliferative activity against human BxPC3 cells after 72 hrs by sulforhodamine B assay. It is filed as functional, cell-based. The conditions noted are these: BXPC-3, 72 h. On the technique in general: In SRB staining, fixed cells bind dye roughly in proportion to their protein.
The target in another series is Tubulin (Homo sapiens) (UniProt P68371+Q9H4B7+P0DPH7+P68366+Q13509+Q71U36+P04350+Q3ZCM7+P07437+P68363+Q9BQE3+Q6PEY2+Q13885+Q9BVA1+Q9BUF5). The series is described as follows: Inhibition of tubulin polymerization (unknown origin) at 5 uM after 1 min in presence of GTP by fluorescence-based assay relative to control. It is filed as protein-complex assay.
For series [3], the system named is BXPC-3. The series is described as follows: Antiproliferative activity against human BxPC3 cells at 12.5 nM after 72 hrs by MTT assay relative to control. The series is classed as functional. A general note: Formazan colour is commonly taken as a measure of viable cells.
A further series is filed under the species Homo sapiens. Description: Inhibition of beta-tubulin polymerization in human BxPC3 cells at 5 nM after 24 hrs by DAPI staining-based fluorescence microscopic analysis. The series is classed as cell-based.

This note sets out measurements from ChEMBL document CHEMBL4219170, “Design, synthesis and biological evaluation of anti-pancreatic cancer activity of plinabulin derivatives based on the co-crystal structure” (Bioorg Med Chem, 2018).

The structures appear in SMILES notation. pIC50: −log10 of the molar value. Converted amounts (≈) assume the structure as drawn. The source made the active and inactive calls. No cut-off for these calls is given here.

As for `CC(C)(C)c1[nH]cnc1/C=c1\[nH]c(=O)/c(=C/c2cccc(C(=O)N3CCOCC3)c2)[nH]c1=O`, the solubility (commonly the concentration that dissolves in the medium under given conditions) in series [1] was found to be 1.79 µg/mL (≈ 3.98 µM). For the same compound, the negative logarithm of the IC50 (pIC50) (commonly −log10 of the IC50, conventionally taken in molar units) with BXPC-3 [2] was 6.59.

Consider `CC(C)(C)c1[nH]cnc1/C=c1\[nH]c(=O)/c(=C/c2cccc(C(=O)c3ccccn3)c2)[nH]c1=O`, for which the inhibition (usually the relative decrease from the control value, in per cent) on Tubulin (Homo sapiens) was determined as 36.6%. Besides, in series [1], the solubility was less than 0.1 µg/mL. This compound had a negative-log IC50 (pIC50) with BXPC-3 [2] of 8.12.

In series [1], `CC(C)(C)c1[nH]cnc1/C=c1\[nH]c(=O)/c(=C/c2cccc(C(=O)c3ccccc3)c2)[nH]c1=O` registered a solubility of less than 0.1 µg/mL.

For the compound `CC(C)(C)c1[nH]cnc1/C=c1\[nH]c(=O)/c(=C/c2cccc(C(=O)c3cccs3)c2)[nH]c1=O`, the inhibition at Tubulin (Homo sapiens) turned out to be 46.4%. This compound returned a solubility in series [1] of less than 0.1 µg/mL. In addition, the pIC50 with BXPC-3 [2] is 8.76.

`CC(C)(C)c1[nH]cnc1/C=c1\[nH]c(=O)/c(=C/c2cccc(C(=O)c3cc[nH]c3)c2)[nH]c1=O`: the negative logarithm of the IC50 (pIC50) in the series on BXPC-3 [2] is less than 7.00.

`CC(C)(C)c1[nH]cnc1/C=c1\[nH]c(=O)/c(=C/c2cccc(C(=O)N3CCCCC3)c2)[nH]c1=O` registered a solubility in series [1] of less than 0.1 µg/mL. Besides, the negative-log IC50 (pIC50) with BXPC-3 [2] was 7.00.

As to `O=C(c1ccccc1)c1cccc(/C=c2\[nH]c(=O)/c(=C/c3ccccn3)[nH]c2=O)c1`, the Activity with BXPC-3 [3] was determined as 85%. This compound showed a solubility in series [1] of less than 0.1 µg/mL. Further, the negative-log IC50 (pIC50) with BXPC-3 [2] is 8.20.

As for `CC(C)(C)c1[nH]cnc1/C=c1\[nH]c(=O)/c(=C/c2cccc(C(=O)c3ccsc3)c2)[nH]c1=O`, on Tubulin (Homo sapiens), the inhibition turned out to be 39.3%. This compound had a solubility in series [1] of less than 0.1 µg/mL. Also, the negative-log IC50 (pIC50) in the series with BXPC-3 [2] is 8.81.

Consider `CN1CCN(C(=O)c2cccc(/C=c3\[nH]c(=O)/c(=C/c4ccccn4)[nH]c3=O)c2)CC1`, for which, in series [1], the solubility was 16.302 µg/mL (≈ 39 µM). The compound also had a pIC50 in the series on BXPC-3 [2] of less than 6.30.

Turning to `CC(C)(C)c1[nH]cnc1/C=c1\[nH]c(=O)/c(=C/c2ccccc2)[nH]c1=O` [PLINABULIN], at Tubulin (Homo sapiens), the inhibition is 18.3%. Further, the inhibition result in the series listed under Homo sapiens is “Active”. For the same compound, the solubility in series [1] was less than 0.1 µg/mL. The same compound gave a negative-log IC50 (pIC50) in the series on BXPC-3 [2] of 8.37.

`CC(C)(C)c1[nH]cnc1/C=c1\[nH]c(=O)/c(=C/c2cccc(C(=O)N3CCCC3)c2)[nH]c1=O` registered a solubility in series [1] of 0.454 µg/mL (≈ 1.05 µM). Also, the pIC50 in the series with BXPC-3 [2] is 6.49.

As to `CC(C)(C)c1[nH]cnc1/C=c1\[nH]c(=O)/c(=C/c2cccc(C(=O)N3CCC3)c2)[nH]c1=O`, in series [1], the solubility amounted to 4.231 µg/mL (≈ 10.1 µM). Also, the pIC50 with BXPC-3 [2] is less than 6.30.

On to `CC(C)(C)c1[nH]cnc1/C=c1\[nH]c(=O)/c(=C/c2cccc(C(=O)c3ccncc3)c2)[nH]c1=O`, for which the inhibition on Tubulin (Homo sapiens) is 34.1%. In series [1], this compound displayed a solubility of less than 0.1 µg/mL. Besides, the pIC50 in the series on BXPC-3 [2] is 7.62.

Take `CN1CCN(C(=O)c2cccc(/C=c3\[nH]c(=O)/c(=C/c4nc[nH]c4C(C)(C)C)[nH]c3=O)c2)CC1`: the solubility in series [1] stood at 85.568 µg/mL (≈ 185 µM). The compound also had a pIC50 in the series with BXPC-3 [2] of less than 6.30.

Regarding `CC(C)(C)c1[nH]cnc1/C=c1\[nH]c(=O)/c(=C/c2cccc(C(=O)c3ccco3)c2)[nH]c1=O`, in series [1], the solubility was less than 0.1 µg/mL. This compound had a pIC50 in the series on BXPC-3 [2] of 8.03.

As to `CC(C)(C)c1[nH]cnc1/C=c1\[nH]c(=O)/c(=C/c2cccc(C(=O)c3cccnc3)c2)[nH]c1=O`, the inhibition on Tubulin (Homo sapiens) turned out to be 28.8%. In series [1], this compound registered a solubility of less than 0.1 µg/mL. Moreover, in the series with BXPC-3 [2], the pIC50 is 8.39.

In turn, `O=C(c1cccc(/C=c2\[nH]c(=O)/c(=C/c3ccccn3)[nH]c2=O)c1)N1CCC1` had a solubility in series [1] of 0.662 µg/mL (≈ 1.77 µM). The pIC50 with BXPC-3 [2] is less than 6.30.

`CC(C)(C)c1[nH]cnc1/C=c1\[nH]c(=O)/c(=C/c2cccc(C(=O)c3cncs3)c2)[nH]c1=O`: the inhibition at Tubulin (Homo sapiens) was determined as 19.9%. The same compound had a solubility in series [1] of less than 0.1 µg/mL. In the series on BXPC-3 [2], this compound gave a negative logarithm of the IC50 (pIC50) of 7.77.

In the case of `CC(C)(C)c1[nH]cnc1/C=c1\[nH]c(=O)/c(=C/c2cccc(C(=O)c3ccoc3)c2)[nH]c1=O`, in series [1], the solubility was less than 0.1 µg/mL. For the same compound, the negative logarithm of the IC50 (pIC50) in the series on BXPC-3 [2] was 8.03.

In series [1], `O=C(c1cccc(/C=c2\[nH]c(=O)/c(=C/c3ccccn3)[nH]c2=O)c1)N1CCCCC1` displayed a solubility of less than 0.1 µg/mL. Further, in the series on BXPC-3 [2], the pIC50 was less than 6.30.

`CC(C)(C)c1[nH]cnc1/C=c1\[nH]c(=O)/c(=C/c2cccc(C(=O)c3ccc[nH]3)c2)[nH]c1=O` had a negative-log IC50 (pIC50) with BXPC-3 [2] of less than 7.00.
